{
  "source": "patent US20250120958A1",
  "about": "“Treatment of GM2 Gangliosidosis” (Azafaros B.V., priority 2022, published 2025)",
  "key": {"[1]": {"assay": "Dynamic vapour sorption (DVS)", "format": "physicochemical", "text": "In addition, the behaviour of the sample of the Form 3 crystalline form of compound of formula (I) obtained by equilibration with ethyl acetate was investigated under variable water vapour pressures (DVS measurement). At the highest relative humidity of 95% the sample absorbed about 1.2% of water that was released when the relative humidity was returned to the 50% RH. The amount of absorbed water is small, and the water sorption is reversible. […] For Form 2, at high relative humidity the sample absorbed about 18% of water; however, most of the absorbed water was released when the relative humidity was returned to the 50% RH.\nDynamic vapour sorption (DVS) measurements were performed with an SPS11-100n “Sorptions Prufsystem” from ProUmid (formerly “Projekt Messtechnik”), August-Nagel-Str. 23, 89079 Ulm (Germany). About 5 mg to 20 mg of sample was put into an aluminum sample pan. Humidity change rates of 5% per hour were used."}, "[2]": {"tested_on": "Sandhoff mouse model (Hexb (−/−))", "assay": "Rotarod (RR) test in Sandhoff mice", "format": "in vivo", "conditions": "16 weeks, 0.5-6 mg/kg/day", "description": "In the ROT, all animals were on the day before the first testing, habituated to the device for 5 min using a continuous rotation speed of 4-40 rotations per minute (rpm). For the subsequent experiments, no prior habituation was conducted. In the actual testing procedure, the test was conducted over 5 min with an accelerating rotation of 4-40 rpm. Time was measured until the animals fell from the rod. Up to 5 animals could be tested simultaneously.\n(§1) Behavioral assessments, including open field tests (OFT, ActiMot, TSE systems) and rotarod (RR, IITC Life Sciences), were also performed. The OFT assessed motor skills by placing a mouse into a square box with high walls for 5 minutes to record several parameters, including distance travelled (centimetres) and resting time in zone (seconds). Motor coordination of mice was assessed using a RR apparatus as per previously published protocol (Osmon, Vyas et al. 2018). Briefly, mice were placed on moving cylinders that accelerated from 4 to 40 rotations per minute (rpm) over 5 minutes. Each mouse was allowed three trials on the RR with a minimum of 10 minutes for rest in-between assessments. The highest number achieved was recorded for each of the following parameters: latency to fall, end rotations per minute and distance travelled."}, "[3]": {"assay": "Brain pharmacokinetics after 16 weeks of once daily administration (LC-MS/MS)", "format": "in vivo, mouse", "description": "Brain samples were collected, rinsed with saline and blotted dry. Samples were fixed in 4% PFA for immunohistochemical analyses; frozen and kept for gene expression and molecular biology analyses; and used frozen for LC-MS/MS analysis.\nUnless otherwise stated, the methodology and sample collection were performed as in Example 2. […] Twenty-four hours after the last dose the animals were euthanized at varying time-points and AZ-3102 was measured by LC-MS/MS. […] However, exposure (AUC0-24) proportionality was well conserved between doses: 6 versus 3 (1.8-fold); 3 and 1.5 (2.0-fold) and 1.5 and 0.5 (2.4-fold). […] The reduced clearance in the brain versus plasma has also been observed in prior studies with rats and dogs (internal data). […] The plasma concentration at all doses was approximately 1 ng/mL after 24 h and in the brain the concentration was greater than 20 ng/g tissue."}, "[4]": {"assay": "Stability of dosing formulation", "format": "physicochemical", "conditions": "0.01 mg/mL-2 mg/mL in purified water/citric acid/NaOH, storage 15-25° C.", "text": "• 1. Introduction and preparation of vehicle control • 1.1. Read the method prior to proceeding with laboratory work • 1.2. Read Study Plan • 1.3. Ensure the work-station is clean and select the correct equipment, clean glassware etc. for the study. • 1.4. Formulate in ascending order of concentration. • 1.5. Start with control group—measure the required volume of purified water and magnetically stir. Whilst magnetically stirring, adjust pH to 3.5-2.5 using 1 M citric acid. Record volumes in raw data. • 1.6. Stir for a minimum of 30 minutes. Record stir times in raw data. • 1.7. Adjust the pH to 4.5-5.5 using 0.1 M NaOH. Record volumes in raw data. • 1.8. Stir for a minimum of 20 minutes using a magnetic stirrer. Record stir times in the raw data. • 1.9. Sample at this point if required. • 2. Test item formulations • 2.1. Weigh the required amount of test item: e.g., For a 0.9 mg/mL target concentration in 600 mL, weigh 540 mg. • 2.2. Add 70% of the final volume of purified water to the test item to obtain a thin suspension (may be difficult to see at these low concentrations): e.g., 420 mL • 2.3. Add not more than 3 molar equivalents of citric acid, and record the pH which should be pH 3.5-2.5, e.g., 3.74 mL of 1 M citric acid solution in water. • Note: The suspension should clear up as an indication for dissolution of the test item. • 2.4. […]"}, "[5]": {"tested_on": "Sandhoff mouse model (Hexb (−/−))", "assay": "Open field test (OFT) in Sandhoff mice", "format": "in vivo", "conditions": "Hexb (−/−) mice vs vehicle, 0.5-6 mg/kg/day", "description": "The OFT was conducted using a 40×40 cm sized apparatus in a quiet room and constant lighting conditions. Trial duration was 5 min. All trials were videotaped and later analysed using the tracking software Smart® Version 3.0.05. Measures included the average locomotion speed, walked distance and time spent in outer and inner zones of the field.\nas §1"}, "Hexb (+/−) mice": {"tested_on": "Hexb (+/−) mice", "assay": "Lifespan of heterozygous Hexb (+/−) mice under treatment", "conditions": "3 mg/kg/day", "procedure": "For all cohorts, drug and/or vehicle (control) were administered by gastric gavage once a day, between 8.00-12.00 am, from the age of 30 days until euthanasia.\nIn addition, animals heterozygous for the Hexb gene (+/−) were treated with vehicle or 3 mg/kg/day. Dosing continued until the animals reached their humane endpoints determined in a blinded fashion by the animal care staff and primarily consisted of the inability to reach sternal recumbency after 10 seconds and, if achieved, was additionally verified by the senior laboratory technician prior to the commencement of the animal being euthanized."}},
  "note": "Entries after “also recorded” stand apart in the source; their conditions may differ.",
  "data": [
    {"smiles": "OC[C@H]1[C@@H](O)[C@H](O)[C@@H](O)CN1CCCCCOCc1ccc(-c2ccccc2)c(F)c1", "note": "[AZ-3102]", "values": [
      {"measurement": "hygroscopicity", "setting": "[1]; DVS", "value": "non-hygroscopic or substantially non-hygroscopic"},
      {"measurement": "water absorbed (DVS)", "setting": "[1]; highest relative humidity of 95%, reversible", "value": "about 1.2%"},
      {"measurement": "RR assessments, effect of treatment vs vehicle", "setting": "[2]", "value": "significant at all dose levels; also recorded: significantly improved"},
      {"measurement": "concentration profile in brain", "setting": "[3]; 24 h period, most dose groups", "value": "sustained with very little decrease"},
      {"measurement": "concentration at 24 h", "setting": "[3]; Hexb (−/−) and Hexb (+/−), mouse, brain, oral, all doses", "value": "> 20", "unit": "ng/g"},
      {"measurement": "Stability of formulation", "setting": "[4]", "value": 8, "unit": "days"},
      {"measurement": "OFT assessments (Total Distance Travelled, Resting Time in Zone)", "setting": "[5]", "value": "significantly improved"},
      {"measurement": "effect on lifespan compared to vehicle", "setting": "Hexb (+/−) mice", "value": "no effect on lifespan"}
    ]}
  ]
}
